The source made the active and inactive calls. The calls are words filed in the database; no cut-off is given here.
How the values were obtained:
[1] = tested on: MCF7/ADM; test: Antitumor activity against human MCF7/ADM cells xenografted in BALB/c mouse assessed as effect on PTEN expression in tumor at 50 mg/kg, ip by Western blot analysis; assay type: functional, organism-based
[2] = target: T1, von Hippel-Lindau disease tumor suppressor/Phosphatidylinositol 4,5-bisphosphate 3-kinase catalytic subunit beta isoform (Homo sapiens, UniProt P42338+P40337); test: PROTAC activity at PI3K-p110beta/VHL in human MCF7/ADM cells assessed as reduction in PI3K-p110beta level by Western blot analysis; assay type: cell-based; conditions: time <= 48.0 hrs
Target sequence in this assay (P40337 whole entry, looked up, canonical isoform): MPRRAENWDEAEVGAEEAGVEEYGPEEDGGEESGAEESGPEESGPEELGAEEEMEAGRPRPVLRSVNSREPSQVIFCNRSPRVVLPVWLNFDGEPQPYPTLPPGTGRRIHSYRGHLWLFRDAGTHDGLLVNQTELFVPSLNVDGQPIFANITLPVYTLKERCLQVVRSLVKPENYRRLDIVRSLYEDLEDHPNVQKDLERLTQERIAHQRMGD
Target sequence in this assay (P42338 whole entry, looked up, canonical isoform): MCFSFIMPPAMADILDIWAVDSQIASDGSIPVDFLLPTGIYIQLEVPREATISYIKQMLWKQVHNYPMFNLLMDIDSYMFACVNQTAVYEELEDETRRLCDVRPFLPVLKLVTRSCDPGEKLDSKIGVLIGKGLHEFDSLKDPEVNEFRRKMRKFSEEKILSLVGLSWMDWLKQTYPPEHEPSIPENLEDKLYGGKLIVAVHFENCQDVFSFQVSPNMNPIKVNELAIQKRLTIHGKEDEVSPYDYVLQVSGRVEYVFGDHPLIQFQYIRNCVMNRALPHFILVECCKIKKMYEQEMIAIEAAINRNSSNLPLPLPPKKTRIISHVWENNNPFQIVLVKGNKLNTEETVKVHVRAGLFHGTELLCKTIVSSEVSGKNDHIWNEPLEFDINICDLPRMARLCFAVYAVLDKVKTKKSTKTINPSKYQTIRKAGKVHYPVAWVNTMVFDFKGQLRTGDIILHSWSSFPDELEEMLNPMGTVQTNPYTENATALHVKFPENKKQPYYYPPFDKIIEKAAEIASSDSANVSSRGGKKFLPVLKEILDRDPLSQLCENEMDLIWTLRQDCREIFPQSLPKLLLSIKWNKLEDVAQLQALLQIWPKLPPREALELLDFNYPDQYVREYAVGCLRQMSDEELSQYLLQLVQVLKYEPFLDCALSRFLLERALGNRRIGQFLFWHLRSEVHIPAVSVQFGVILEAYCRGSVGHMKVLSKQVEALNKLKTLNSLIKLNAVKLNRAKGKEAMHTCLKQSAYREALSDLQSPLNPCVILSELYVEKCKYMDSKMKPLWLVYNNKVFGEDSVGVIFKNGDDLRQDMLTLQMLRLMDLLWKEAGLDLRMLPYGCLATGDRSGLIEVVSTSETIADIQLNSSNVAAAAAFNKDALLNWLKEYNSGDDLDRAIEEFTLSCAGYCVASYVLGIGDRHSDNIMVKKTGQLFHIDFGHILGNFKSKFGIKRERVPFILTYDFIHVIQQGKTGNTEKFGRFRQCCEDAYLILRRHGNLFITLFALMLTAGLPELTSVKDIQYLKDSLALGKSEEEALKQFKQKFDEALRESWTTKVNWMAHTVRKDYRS

[3] = tested on: A549/CDDP; test: Upregulation of p-IRE1 expression in human A549/DDP cells at 0.25 to 25 uM incubated for 24 hrs by Western blot analysis; assay type: functional, cell-based; conditions: dose 0.25-25 µM
[4] = tested on: A549/CDDP; test: Induction of apoptosis in human A549/DDP cells assessed as increase in cleaved caspase-3 expression at 12.5 uM incubated for 24 hrs by Western blot analysis; assay type: functional, cell-based
[5] = target: T1, von Hippel-Lindau disease tumor suppressor/Phosphatidylinositol 4,5-bisphosphate 3-kinase catalytic subunit beta isoform; test: PROTAC activity at PI3K-p110beta/VHL in human A549/DDP cells assessed as reduction in PI3K-p110beta level incubated for 24 hrs by Western blot analysis; assay type: cell-based
[6] = Toxicity in BALB/c mouse xenografted with human MCF7/ADM cells assessed as change in BUN level at 50 mg/kg, ip; assay type: organism-based; conditions: in vivo
[7] = Toxicity in BALB/c mouse xenografted with human MCF7/ADM cells assessed as heart damage at 50 mg/kg, ip by H and E staining based analysis; assay type: organism-based; conditions: in vivo
[8] = tested on: MCF7/ADM; test: Antitumor activity against human MCF7/ADM cells xenografted in BALB/c mouse assessed as increase in ATF6 expression in tumor at 50 mg/kg, ip by Western blot analysis; assay type: functional, organism-based
[9] = tested on: MCF7/ADM; test: Antitumor activity against human MCF7/ADM cells xenografted in BALB/c mouse assessed as decrease in bcl-2 expression in tumor at 50 mg/kg, ip by Western blot analysis; assay type: functional, organism-based
[10] = tested on: A549/CDDP; test: Induction of oxidative stress in human A549/DDP cells at 25 uM measured for 24 hrs; assay type: functional, cell-based
[11] = tested on: A549/CDDP; test: Upregulation of PTEN expression in human A549/DDP cells at 25 uM incubated for 24 hrs by Western blot analysis; assay type: functional, cell-based
[12] = tested on: MCF7/ADM; test: Antitumor activity against human MCF7/ADM cells xenografted in BALB/c mouse assessed as reduction in tumor volume at 50 mg/kg, ip measured every 2 days; assay type: functional, organism-based; conditions: time 2.0 day
[13] = tested on: MCF7/ADM; test: Induction of apoptosis in human MCF7/ADM cells assessed as decrease in bax expression at 12.5 uM incubated for 24 hrs by Western blot analysis; assay type: functional, cell-based
[14] = tested on: MCF7/ADM; test: Upregulation of p-IRE1 expression in human MCF7/ADM cells at 0.25 to 25 uM incubated for 24 hrs by Western blot analysis; assay type: functional, cell-based; conditions: dose 0.25-25 µM
[15] = tested on: A549/CDDP; test: Activation of unfolded protein response in human A549/DDP cells at 25 uM incubated for 24 hrs by PROTEOSTATR aggresome dye based fluorescent microscopy; assay type: functional, cell-based
[16] = tested on: MCF7/ADM; test: Antitumor activity against human MCF7/ADM cells xenografted in BALB/c mouse assessed as reduction in AKT expression in tumor at 50 mg/kg, ip by Western blot analysis; assay type: functional, organism-based
[17] = tested on: MCF7/ADM; test: Downregulation of p-gp level in human MCF7/ADM cells at 6.25 to 25 uM incubated for 24 hrs; assay type: functional, cell-based; conditions: dose 6.25-25 µM
[18] = tested on: A549/CDDP; test: Induction of apoptosis in human A549/DDP cells assessed as increase in caspase-3 expression at 12.5 uM incubated for 24 hrs by Western blot analysis; assay type: functional, cell-based
[19] = target: T1, von Hippel-Lindau disease tumor suppressor/Phosphatidylinositol 4,5-bisphosphate 3-kinase catalytic subunit beta isoform; test: PROTAC activity at PI3K-p110beta/VHL in human A549/DDP cells assessed as reduction in PI3K-p110beta level by Western blot analysis; assay type: cell-based; conditions: time <= 48.0 hrs
Target sequence in this assay (P40337 whole entry, looked up, canonical isoform): as the sequence (P40337 whole entry, looked up, canonical isoform) above
Target sequence in this assay (P42338 whole entry, looked up, canonical isoform): as the sequence (P42338 whole entry, looked up, canonical isoform) above

[20] = target: T1, von Hippel-Lindau disease tumor suppressor/Phosphatidylinositol 4,5-bisphosphate 3-kinase catalytic subunit beta isoform; test: PROTAC activity at PI3K-p110beta/VHL in human A549/DDP cells assessed as induction of PI3K-p110beta degradation at 0.04 to 50 uM by Western blot analysis; assay type: cell-based; conditions: dose 0.04-50 µM, time 24.0 hrs
Target sequence in this assay (P40337 whole entry, looked up, canonical isoform): as the sequence (P40337 whole entry, looked up, canonical isoform) above
Target sequence in this assay (P42338 whole entry, looked up, canonical isoform): as the sequence (P42338 whole entry, looked up, canonical isoform) above

[21] = tested on: MCF7/ADM; test: Induction of apoptosis in human MCF7/ADM cells assessed as decrease in bcl-2 expression at 12.5 uM incubated for 24 hrs by Western blot analysis; assay type: functional, cell-based
[22] = Toxicity in BALB/c mouse xenografted with human MCF7/ADM cells assessed as change in HGB level at 50 mg/kg, ip; assay type: organism-based; conditions: in vivo
[23] = target: T1, von Hippel-Lindau disease tumor suppressor/Phosphatidylinositol 4,5-bisphosphate 3-kinase catalytic subunit beta isoform; test: PROTAC activity at PI3K-p110beta/VHL in human MCF7/ADM cells assessed as reduction in PI3K-p110beta level incubated for 2 hrs by Western blot analysis; assay type: cell-based
Target sequence in this assay (P40337 whole entry, looked up, canonical isoform): as the sequence (P40337 whole entry, looked up, canonical isoform) above
Target sequence in this assay (P42338 whole entry, looked up, canonical isoform): as the sequence (P42338 whole entry, looked up, canonical isoform) above

[24] = tested on: A549/CDDP; test: Induction of apoptosis in human A549/DDP cells assessed as increase in caspase-8 expression at 12.5 uM incubated for 24 hrs by Western blot analysis; assay type: functional, cell-based
[25] = tested on: MCF7/ADM; test: Induction of ROS level in human MCF7/ADM cells at 25 uM measured for 24 hrs by MitoSOX staining based analysis; assay type: functional, cell-based
[26] = tested on: MCF7; test: Antitumor activity against human MCF7 cells assessed as cell viability incubated for 24 hrs by MTT assay; assay type: functional, cell-based; conditions: MCF7, 24 h
[27] = Toxicity in BALB/c mouse xenografted with human MCF7/ADM cells assessed as lung damage at 50 mg/kg, ip by H and E staining based analysis; assay type: organism-based; conditions: in vivo
[28] = Toxicity in BALB/c mouse xenografted with human MCF7/ADM cells assessed as change in ALT level at 50 mg/kg, ip; assay type: organism-based; conditions: in vivo
[29] = target: T1, von Hippel-Lindau disease tumor suppressor/Phosphatidylinositol 4,5-bisphosphate 3-kinase catalytic subunit beta isoform; test: PROTAC activity at PI3K-p110beta/VHL in human MCF7/ADM cells assessed as induction of PI3K-p110beta degradation at 25 uM measured for 24 hrs in presence of VHL ligand by Western blot analysis; assay type: cell-based
Target sequence in this assay (P40337 whole entry, looked up, canonical isoform): as the sequence (P40337 whole entry, looked up, canonical isoform) above
Target sequence in this assay (P42338 whole entry, looked up, canonical isoform): as the sequence (P42338 whole entry, looked up, canonical isoform) above

[30] = tested on: Mitochondrial membrane; test: Induction of mitochondrial membrane potential loss in human A549/DDP cells assessed as increase in green fluorescence at 25 uM incubated for 48 hrs by JC-1 staining based flow cytometry
[31] = target: T1, von Hippel-Lindau disease tumor suppressor/Phosphatidylinositol 4,5-bisphosphate 3-kinase catalytic subunit beta isoform; test: PROTAC activity at PI3K-p110beta/VHL in human A549/DDP cells assessed as reduction in PI3K-p110beta level incubated for 2 hrs by Western blot analysis; assay type: cell-based
Target sequence in this assay (P40337 whole entry, looked up, canonical isoform): as the sequence (P40337 whole entry, looked up, canonical isoform) above
Target sequence in this assay (P42338 whole entry, looked up, canonical isoform): as the sequence (P42338 whole entry, looked up, canonical isoform) above

[32] = Antitumor activity against human MCF7/ADM cells assessed as cell viability incubated for 24 hrs by MTT assay; assay type: functional, cell-based
[33] = target: T2, ATP-dependent translocase ABCB1 (Homo sapiens, UniProt P08183); test: Inhibition of P-gp in human MCF7/ADM cells assessed as increase in intracellular adriamycin accumulation at 6.25 to 25 uM incubated for 24 hrs by flow cytometry analysis; assay type: cell-based; conditions: dose 6.25-25 µM
T2 sequence (P08183 whole entry): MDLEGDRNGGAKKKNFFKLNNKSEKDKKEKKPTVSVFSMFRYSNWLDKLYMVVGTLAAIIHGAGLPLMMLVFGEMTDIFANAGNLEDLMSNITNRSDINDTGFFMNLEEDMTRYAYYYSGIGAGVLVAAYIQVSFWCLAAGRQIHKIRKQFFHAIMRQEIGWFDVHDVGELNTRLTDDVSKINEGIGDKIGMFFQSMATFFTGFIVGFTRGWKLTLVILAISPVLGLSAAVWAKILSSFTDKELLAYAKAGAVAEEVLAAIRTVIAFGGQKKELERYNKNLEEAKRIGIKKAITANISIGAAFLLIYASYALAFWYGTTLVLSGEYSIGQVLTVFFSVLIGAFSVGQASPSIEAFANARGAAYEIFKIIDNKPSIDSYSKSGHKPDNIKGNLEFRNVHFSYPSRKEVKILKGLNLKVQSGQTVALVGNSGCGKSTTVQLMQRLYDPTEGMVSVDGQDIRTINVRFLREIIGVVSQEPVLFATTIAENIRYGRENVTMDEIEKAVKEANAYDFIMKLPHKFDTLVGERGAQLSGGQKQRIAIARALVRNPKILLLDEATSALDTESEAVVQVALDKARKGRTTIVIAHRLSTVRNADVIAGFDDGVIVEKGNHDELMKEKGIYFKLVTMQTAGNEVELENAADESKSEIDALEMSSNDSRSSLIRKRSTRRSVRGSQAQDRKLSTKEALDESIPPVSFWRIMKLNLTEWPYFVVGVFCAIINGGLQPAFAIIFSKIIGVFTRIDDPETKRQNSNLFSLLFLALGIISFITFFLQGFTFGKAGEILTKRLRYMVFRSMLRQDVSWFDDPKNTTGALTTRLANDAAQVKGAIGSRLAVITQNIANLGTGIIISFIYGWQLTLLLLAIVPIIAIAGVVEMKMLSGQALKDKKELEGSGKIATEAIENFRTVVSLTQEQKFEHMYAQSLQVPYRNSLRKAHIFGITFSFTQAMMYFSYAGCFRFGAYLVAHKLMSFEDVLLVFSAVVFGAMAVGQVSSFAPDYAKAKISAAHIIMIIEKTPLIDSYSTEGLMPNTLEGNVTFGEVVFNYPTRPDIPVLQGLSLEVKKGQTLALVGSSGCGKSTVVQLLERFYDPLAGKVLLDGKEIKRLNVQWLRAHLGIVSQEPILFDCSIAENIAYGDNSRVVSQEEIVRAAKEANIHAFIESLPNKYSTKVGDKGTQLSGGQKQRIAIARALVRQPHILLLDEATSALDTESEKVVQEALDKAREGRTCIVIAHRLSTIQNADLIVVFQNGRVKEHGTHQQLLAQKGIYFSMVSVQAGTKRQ

[34] = tested on: MCF7/ADM; test: Antitumor activity against human MCF7/ADM cells xenografted in BALB/c mouse assessed as reduction in p-110beta expression in tumor at 50 mg/kg, ip by Western blot analysis; assay type: functional, organism-based
[35] = target: T2, ATP-dependent translocase ABCB1; test: Inhibition of P-gp in human A549/DDP cells at 6.25 to 25 uM incubated for 24 hrs; assay type: cell-based; conditions: dose 6.25-25 µM
[36] = tested on: MCF7/ADM; test: Antitumor activity against human MCF7/ADM cells xenografted in BALB/c mouse assessed as decrease in cleaved caspase-8 expression in tumor at 50 mg/kg, ip by Western blot analysis; assay type: functional, organism-based

Activity [2] | Activity [19] | Activity [20] | SMILES | Activity [1] | Activity [3] | Activity [4] | Activity [6] | Activity [7] | Activity [8] | Activity [9] | Activity [10] | Activity [11] | Activity [12] | Activity [13] | Activity [14] | Activity [15] | Activity [16] | Activity [17] | Activity [18] | Activity [21] | other results
Time-dependent-effect | Time-dependent-effect | Time-dependent-effect | Cc1cc(C(C)Nc2ccccc2C(=O)NCCOCCOCCC(=O)N[C@H](C(=O)N2C[C@H](O)C[C@H]2C(=O)NCc2ccc(-c3scnc3C)cc2)C(C)(C)C)c2nc(N3CCOCC3)cc(=O)n2c1 (some centres not stated) | inactive | Active | Active | Non-toxic | Non-toxic | Active | Active | Active | Active | Active | Active | Active | Active | Active | Active | Active | Active | Activity ([5]; dose 0.04-50 µM): Dose-dependent-effect; Activity [22]: Non-toxic; Activity [23]: Active; Activity [24]: Active; Activity [25]: Active; IC50 [26]: 33.9 µM; Activity [27]: Non-toxic; Activity [28]: Non-toxic; Activity [29]: Active; Activity [30]: Active; Activity [31]: Active; IC50 [32]: 30.2 µM; inhibition (INH) [33]: Active; Activity [34]: Active; inhibition (INH) [35]: Active; Activity [36]: Active
Time-dependent-effect | Time-dependent-effect | Time-dependent-effect | Cc1cc(C(C)Nc2ccccc2C(=O)NCCCCCCC(=O)N[C@H](C(=O)N2C[C@H](O)C[C@H]2C(=O)NCc2ccc(-c3scnc3C)cc2)C(C)(C)C)c2nc(N3CCOCC3)cc(=O)n2c1 (some centres not stated) | inactive | Active | Active | Non-toxic | Non-toxic | Active | Active | Active | Active | Active | Active | Active | Active | Active | Active | Active | Active | DC50 [5]: 2.19 µM; Activity [22]: Non-toxic; Activity [23]: Active; Activity [24]: Active; Activity [25]: Active; IC50 [26]: 54 µM; Activity [27]: Non-toxic; Activity [28]: Non-toxic; Activity [29]: Active; Activity [30]: Active; Activity [31]: Active; IC50 [32]: 38.7 µM; inhibition (INH) [33]: Active; Activity [34]: Active; inhibition (INH) [35]: Active; Activity [36]: Active

From ChEMBL document CHEMBL6134905, “Double Swords in One: Novel Selective PI3K/110β PROTAC Degraders for the Treatment of Multidrug-Resistant Cancer by Activating ERS and Inhibiting P-gp” (J Med Chem, 2025)
